Experimental data from patent US7994140B2, “Classes of compounds that interact with GPCRs” (Alchemia Limited, priority 2002, dated 2011).

Assays:
MC4 = biological target: T1, MC4 (Homo sapiens, UniProt P32245); experiment: GPCR radioligand binding (RLB) assay, melanocortin MC4, [125I]NDP-αMSH; details: 10 micromolar compound; recombinant human receptor membranes (HEK 293)
T1 construct: purchased Perkin Elmer BioSignal; host or cells: HEK 293
Outline: (§1)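 Membranes from HEK 293 cells expressing the recombinant human receptor were equilibrated with [125I]SST-14 (SST5) or [125I]NDP-αMSH (MC4), then compound added for an optimized incubation. Bound ligand separated by filtration on PEI-coated glass fiber and counted by liquid scintillation.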

SST5 = biological target: T2, SST5 (Homo sapiens, UniProt P35346); experiment: GPCR radioligand binding (RLB) assay, somatostatin SST5, [125I]SST-14; details: 10 micromolar compound; recombinant human receptor membranes (HEK 293)
T2 construct: purchased Perkin Elmer BioSignal; host or cells: HEK 293
Outline: as §1

T2 sequence (P35346 whole entry): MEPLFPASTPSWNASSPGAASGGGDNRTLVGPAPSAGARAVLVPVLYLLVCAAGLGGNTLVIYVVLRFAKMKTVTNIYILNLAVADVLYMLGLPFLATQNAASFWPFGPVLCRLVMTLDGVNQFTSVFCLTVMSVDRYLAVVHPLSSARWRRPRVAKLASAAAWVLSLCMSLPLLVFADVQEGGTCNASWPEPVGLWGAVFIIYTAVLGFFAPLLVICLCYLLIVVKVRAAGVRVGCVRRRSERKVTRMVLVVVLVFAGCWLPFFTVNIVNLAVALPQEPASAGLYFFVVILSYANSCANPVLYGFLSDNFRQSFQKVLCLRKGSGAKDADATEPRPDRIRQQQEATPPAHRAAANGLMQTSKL
T1 sequence (P32245 whole entry): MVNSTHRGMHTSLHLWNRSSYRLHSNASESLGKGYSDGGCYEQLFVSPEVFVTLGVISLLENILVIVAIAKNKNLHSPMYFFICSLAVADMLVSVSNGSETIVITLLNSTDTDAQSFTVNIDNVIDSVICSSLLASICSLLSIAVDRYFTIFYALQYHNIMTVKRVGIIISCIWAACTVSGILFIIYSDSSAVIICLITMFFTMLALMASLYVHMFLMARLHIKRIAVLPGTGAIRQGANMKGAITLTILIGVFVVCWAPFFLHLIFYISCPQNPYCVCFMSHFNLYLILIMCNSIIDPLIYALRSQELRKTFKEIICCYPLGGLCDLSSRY

Compound | MC4 inhibition at 10 micromolar (MC4) | SST5 inhibition at 10 micromolar (SST5)
CO[C@H]1[C@H](O)[C@@H](COCc2ccc3ccccc3c2)OC(OCCc2ccccc2)[C@@H]1NC(=O)CCCN (some centres unmarked) [Compound 102] | + (Indicates inhibition greater than . . . 50%) | + (Indicates inhibition greater than . . . 50%)
CO[C@H]1[C@H](O)[C@@H](COCc2ccc3ccccc3c2)OC(OCCc2ccccc2)[C@@H]1NC(=O)CCCNC(=N)N (some centres unmarked) [Compound 103] | + (Indicates inhibition greater than . . . 50%) | + (Indicates inhibition greater than . . . 50%)
CO[C@H]1[C@H](O)[C@@H](COCc2ccc(Cl)cc2)OC(OCCc2ccccc2)[C@@H]1NC(=O)CCCN (some centres unmarked) [Compound 106] | + (Indicates inhibition greater than . . . 50%) | + (Indicates inhibition greater than . . . 50%)
CSC1OC(COCc2ccccc2)C(O)C(OCc2ccccc2)C1NC(=O)CNC(=N)N (centres unmarked) [Compound 120] | + (Indicates inhibition greater than . . . 50%) | + (Indicates inhibition greater than . . . 50%)
CSC1OC(COCc2ccccc2)C(O)C(OCc2ccccc2)C1NC(=O)CCN (centres unmarked) [Compound 121] | + (Indicates inhibition greater than . . . 50%) | + (Indicates inhibition greater than . . . 50%)
CSC1OC(COCc2ccccc2)C(O)C(OCc2ccccc2)C1NC(=O)CCNC(=N)N (centres unmarked) [Compound 122] | + (Indicates inhibition greater than . . . 50%) | + (Indicates inhibition greater than . . . 50%)
CSC1OC(COCc2ccccc2)C(O)C(OCc2ccccc2)C1NC(=O)CCCNC(=N)N (centres unmarked) [Compound 124] | + (Indicates inhibition greater than . . . 50%) | + (Indicates inhibition greater than . . . 50%)
CSC1OC(COCc2ccc(Cl)cc2)C(O)C(OCc2ccccc2)C1NC(=O)CNC(=N)N (centres unmarked) [Compound 126] | + (Indicates inhibition greater than . . . 50%) | + (Indicates inhibition greater than . . . 50%)
CSC1OC(COCc2ccc(Cl)cc2)C(O)C(OCc2ccccc2)C1NC(=O)CCNC(=N)N (centres unmarked) [Compound 128] | + (Indicates inhibition greater than . . . 50%) | + (Indicates inhibition greater than . . . 50%)
CSC1OC(COCc2ccc(Cl)cc2)C(O)C(OCc2ccccc2)C1NC(=O)CCCN (centres unmarked) [Compound 129] | + (Indicates inhibition greater than . . . 50%) | + (Indicates inhibition greater than . . . 50%)
CSC1OC(COCc2ccc(Cl)cc2)C(O)C(OCc2ccccc2)C1NC(=O)CCCNC(=N)N (centres unmarked) [Compound 130] | + (Indicates inhibition greater than . . . 50%) | + (Indicates inhibition greater than . . . 50%)
CSC1OC(COCc2ccc(-c3ccccc3)cc2)C(O)C(OCc2ccccc2)C1NC(=O)CNC(=N)N (centres unmarked) [Compound 132] | + (Indicates inhibition greater than . . . 50%) | + (Indicates inhibition greater than . . . 50%)
CSC1OC(COCc2ccc(-c3ccccc3)cc2)C(O)C(OCc2ccccc2)C1NC(=O)CCN (centres unmarked) [Compound 133] | + (Indicates inhibition greater than . . . 50%) | + (Indicates inhibition greater than . . . 50%)
CSC1OC(COCc2ccc(-c3ccccc3)cc2)C(O)C(OCc2ccccc2)C1NC(=O)CCNC(=N)N (centres unmarked) [Compound 134] | + (Indicates inhibition greater than . . . 50%) | + (Indicates inhibition greater than . . . 50%)
CSC1OC(COCc2ccc(-c3ccccc3)cc2)C(O)C(OCc2ccccc2)C1NC(=O)CCCN (centres unmarked) [Compound 135] | + (Indicates inhibition greater than . . . 50%) | + (Indicates inhibition greater than . . . 50%)
CSC1OC(COCc2ccc(-c3ccccc3)cc2)C(O)C(OCc2ccccc2)C1NC(=O)CCCNC(=N)N (centres unmarked) [Compound 136] | + (Indicates inhibition greater than . . . 50%) | + (Indicates inhibition greater than . . . 50%)
CSC1OC(COCc2ccc3ccccc3c2)C(O)C(OCc2ccccc2)C1NC(=O)CN (centres unmarked) [Compound 137] | + (Indicates inhibition greater than . . . 50%) | + (Indicates inhibition greater than . . . 50%)
CSC1OC(COCc2ccc3ccccc3c2)C(O)C(OCc2ccccc2)C1NC(=O)CNC(=N)N (centres unmarked) [Compound 138] | + (Indicates inhibition greater than . . . 50%) | + (Indicates inhibition greater than . . . 50%)
CSC1OC(COCc2ccc3ccccc3c2)C(O)C(OCc2ccccc2)C1NC(=O)CCN (centres unmarked) [Compound 139] | + (Indicates inhibition greater than . . . 50%) | + (Indicates inhibition greater than . . . 50%)
